Source: patent US11484258B2, “Free radical consumption speed information acquisition method and NASH determination method” (KYUSHU UNIVERSITY, NATIONAL UNIVERSITY CORPORATION, priority 2016, dated 2022)
Read-outs that look alike come from different tables or passages of the source.

Assays:
[1] = test system: liver; assay: in vivo DNP-MRI of the liver after intravenous CmP: redox metabolic rate (free radical consumption speed); set-up: species or system mouse
Excerpt: C57BL6 mice (female, 5 weeks old) were purchased from Charles River Laboratories Japan, Inc. (Yokohama, Japan), and were acclimated for 1 week before starting the experiment. Five mice were housed per cage and were fed with a methionine-choline deficient diet or a normal diet in a room where the temperature and the circadian rhythm were controlled. Each of a methionine-choline deficient diet group (NASH model mouse group) and a normal diet group (normal mouse group) was divided into 5 groups to be subjected to DNP-MRI measurement at 1, 2, 4, 6 and 8 weeks, and blood collection, autopsy and liver tissue collection were performed to evaluate the pathological conditions.
A mouse (NASH model mouse) was anesthetized with isoflurane (4% for introduction, 2% for maintenance) and was fixed, with a pressure-sensitive tape for skin, on a local detector for liver measurement (a surface coil) and a holder with the stomach side faced downward. The body temperature of the mouse was 37±1° C. during the experiment. The mouse was transferred to a DNP-MRI resonance apparatus and the apparatus was set such that the whole liver was a measurement target, and then, CmP (Carbamoyl-PROXYL, redox contrast agent) was intravenously injected into the NASH mode mouse, and the DRI-MRI measurement was started.
TR: 1200 ms; TE: 25 ms; TEPR: 600 ms; number of phase-encoding gradient steps: 64; […]; FOV: 48 mm×48 mm; matrix size: 64×64 (in-plane resolution: 0.75 mm); slice thickness: 30 mm; number of average: 1; and scanning time: 79 s. OMRI data was analyzed by using Image J Software Package (http://rsb.info.nih.gov/ij/).
Besides, the mouse group fed with the normal diet (the normal mouse group) was similarly subjected as a control to the DRI-MRI evaluation.
With respect to the NASH model mouse group, the DNP-MRI measurement was performed 1 week (MCD1), 2 weeks (MCD2), 4 weeks (MCD4), 6 weeks (MCD6) and 8 weeks (MCD8) after feeding the methionine-choline deficient diet (MCD) was started, and the redox metabolic rate of the CmP radical in the liver was calculated.
Also with respect to the normal mouse group, the DNP-MRI measurement was similarly performed 1 week (ND1), 2 weeks (ND2), 4 weeks (ND4), 6 weeks (ND6) and 8 weeks (ND8) after feeding the normal diet was started, and the redox metabolic rate of the CmP radical in the liver was calculated.

[2] = test system: homogenate solution of the liver
[3] = test system: homogenate solution of the liver; assay: redox metabolism of CmP by liver homogenate solution, cytoplasmic and blood components (FIG. 7); conditions: KCN (mitochondrial electron transport chain inhibitor) added

`CC1(C)CC(C(N)=O)C(C)(C)N1[O]` (stereo not shown) [CmP, Carbamoyl-PROXYL] was tested, and the “disappearance of the CmP (image intensity in region of interest)” value ([1]; NASH model mouse compared with normal mouse) was “significantly slower”, the “redox metabolic rate (disappearing rate) in the liver” value ([1]; NASH model mouse group (methionine-choline deficient diet), from 1 week (MCD1), versus normal mouse) was “significant decrease” and the “time after administration at which the CmP radical still remained” value ([1]; NASH model mouse, epigastrium DNP-MRI images, FIG. 3) was 13 min. For the same compound, the “time after administration at which the CmP radical had mostly disappeared” value ([1]; normal mice (control), epigastrium DNP-MRI images, FIG. 3) was 5.5 min, the “reaction with a cytoplasmic component or a blood component” value [2] was “minimally reacts” and the “redox metabolism by a homogenate solution of the liver” value [2] was “redox metabolized”. The “redox metabolism by a homogenate solution of the liver” value [3] was “metabolism is stopped”.
